The text below walks through data of ChEMBL document CHEMBL4673175, “An epigrammatic status of the azole-based antimalarial drugs” (RSC Med Chem, 2020).

Assay [1] deals with Plasmodium falciparum. Nature of the assay: Antiplasmodial activity against chloroquine resistant Plasmodium falciparum Dd2. The format is functional, organism-based.
The test system of assay [2] is Plasmodium falciparum. Nature of the assay: Antimalarial activity against chloroquine-resistant ring-stage Plasmodium falciparum W2 infected in human erythrocytes by HRP2 assay. Type of assay: functional, organism-based.
Assay [3] deals with Plasmodium falciparum. Nature of the assay: Antiplasmodial activity against ring stage Plasmodium falciparum incubated for 72 hrs by SYBR Green I based assay. The format is functional, organism-based.
The test system of assay [4] is Plasmodium berghei. Nature of the assay: Antimalarial activity against Plasmodium berghei ANKA infected in Swiss albino mouse assessed as parasitemia suppression at 50 micromol/kg, po administered for 4 days and measured at 24 hrs post-last dose by Giemsa staining based microscopic method relative to control. The format is functional. The conditions noted are these: dose 50 µmol/kg; time 4 day.

The test system of assay [5] is Plasmodium falciparum. In words: Antimalarial activity against chloroquine resistant Plasmodium falciparum RKL9 assessed as reduction in schizont maturation incubated for 24 hrs by Giemsa staining based assay. Type of assay: functional, organism-based. Particulars: RKL9, 24 h.
Assay [6] concerns Plasmodium falciparum. Nature of the assay: Antiplasmodial activity against chloroquine-resistant/mefloquine resistant early ring stage Plasmodium falciparum Dd2 by whole-cell SYBR Green I based assay. Type of assay: functional, organism-based.
Assay [7] relates to Plasmodium falciparum. Nature of the assay: Antiplasmodial activity against chloroquine-sensitive/mefloquine resistant early ring stage Plasmodium falciparum 3D7 by whole-cell SYBR Green I based assay. Type of assay: functional, organism-based.
Assay [8] concerns Plasmodium falciparum. In words: Antiplasmodial activity against Plasmodium falciparum IPC5202 by whole-cell SYBR Green I based assay. Type of assay: functional, organism-based.
Assay [9] deals with Plasmodium falciparum. In words: Antiplasmodial activity against Plasmodium falciparum IPC4912 by whole-cell SYBR Green I based assay. Type of assay: functional, organism-based.
In assay [10] the test system is Falcipain-2 (Plasmodium falciparum). Nature of the assay: Inhibition of Plasmodium falciparum falcipain-2 in enzyme assay.
The target of assay [11] is T1, Enoyl-acyl-carrier protein reductase (Plasmodium falciparum, UniProt Q965D5).
T1 sequence (Q965D5 whole entry): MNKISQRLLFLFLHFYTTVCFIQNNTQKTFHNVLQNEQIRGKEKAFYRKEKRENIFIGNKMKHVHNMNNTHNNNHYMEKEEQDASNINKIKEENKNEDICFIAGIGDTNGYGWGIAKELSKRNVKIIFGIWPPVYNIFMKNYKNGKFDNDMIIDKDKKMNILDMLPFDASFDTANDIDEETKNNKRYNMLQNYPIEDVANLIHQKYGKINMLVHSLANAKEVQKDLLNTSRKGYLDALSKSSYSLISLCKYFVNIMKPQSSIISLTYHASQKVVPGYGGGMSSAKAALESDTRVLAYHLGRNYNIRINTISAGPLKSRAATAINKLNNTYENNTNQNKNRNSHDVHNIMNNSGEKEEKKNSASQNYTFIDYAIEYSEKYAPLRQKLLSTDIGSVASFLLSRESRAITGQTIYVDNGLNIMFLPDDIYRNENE
In words: Inhibition of Plasmodium falciparum enoyl-ACP reductase using crotonoyl-CoA as substrate by UV-Vis spectrophotometric method.

Assay [12] concerns Plasmodium falciparum. Nature of the assay: Antimalarial activity against chloroquine resistant Plasmodium falciparum. Type of assay: functional, organism-based.
The test system of assay [13] is Plasmodium falciparum. Nature of the assay: Antimalarial activity against chloroquine sensitive Plasmodium falciparum. The format is functional, organism-based.
Assay [14] has as its system Plasmodium falciparum. Nature of the assay: Antiplasmodial activity against chloroquine sensitive Plasmodium falciparum D10. Type of assay: functional, organism-based.
The test system of assay [15] is Plasmodium falciparum. In words: Antimalarial activity against chloroquine sensitive Plasmodium falciparum 3D7 assessed as reduction in schizont maturation incubated for 24 hrs by Giemsa staining based assay. Type of assay: functional, organism-based. The conditions noted are these: 3D7, 24 h.
Assay [16] concerns Hemozoin. In words: Inhibition of beta-hematin formation at 5 to 100 mM incubated for 48 hrs. The conditions noted are these: dose 5-100 mM.
Assay [17] concerns Plasmodium berghei. In words: Antimalarial activity against Plasmodium berghei ANKA infected in Balb-C mouse assessed as mouse survival time at 10 mg/kg, ip administered once per day for 4 consecutive days (reference value: 8.20 +/- 0.20 days). Type of assay: functional. The conditions noted are these: time 4 day.
Assay [18] relates to Plasmodium berghei. Nature of the assay: Antimalarial activity against Plasmodium berghei ANKA infected in Balb-C mouse assessed as parasitemia at 10 mg/kg, ip administered once daily for 4 consecutive days by Giemsa staining based assay relative to control. Type of assay: functional. Particulars: time 4 day.

`Clc1ccccc1CN1CC1Cn1cc(-c2ccccc2)nn1` (configuration not stated) had an IC50 in assay [1] of at most 25000 nM.
Regarding `Clc1ccc2c(-n3cc(-c4ccccc4)nn3)ccnc2c1`, the IC50 in assay [2] is 1400 nM.
For the compound `CCOC(=O)c1sc(N/N=C(\C)c2ccccn2)nc1C`, in assay [3], the IC50 turned out to be 725 nM.
Regarding `CCOC(=O)c1cn(-c2ccnc3cc(Cl)ccc23)nn1`, in [2], half-maximal inhibition (IC50) was put at 1400 nM.
The same measure, in the same setting: the same measure for `Clc1ccc2c(-n3cc(C4CC4)nn3)ccnc2c1`: 1400 nM.
On to `Cc1ccc(-n2cc(C(=O)O)c(-c3ccccc3)n2)cc1`, for which the Activity in assay [4] was found to be 83%. For the same compound, the IC50 in assay [5] was found to be 33 nM.
`Cn1nnnc1NCC1CCC2(CC1)OOC1(O2)C2CC3CC(C2)CC1C3` (configuration not stated): the concentration for half-maximal inhibition (IC50) in [6], in [7], in assay [8] and in [9] was 0.3 nM in each case.
In assay [10], `COc1cccc(/C=C(/C#N)c2nc3ccccc3[nH]2)c1` came in with a 50% inhibitory concentration (IC50) of 690 nM.
In assay [11], `Cc1ccc(-c2nn(-c3nccc(C(F)(F)F)n3)cc2C=O)cc1` showed an IC50 of 30000 nM.
As to `Clc1ccccc1C(c1ccccc1)(c1ccccc1)n1ccnc1` [CLOTRIMAZOLE], the IC50 in [12] and in [13] was 200 nM throughout.
For `O=Cc1cn(-c2ccc(Cl)cc2)nc1-c1ccccc1`, the Activity in [4] is listed as 83%. Further, the IC50 in [5] turned out to be 33 nM.
As to `O=[N+]([O-])c1ccc(-c2cc(C(F)(F)F)nn2-c2ccccc2)cc1`, the IC50 in assay [11] came to 50000 nM.
In the case of `Cc1ccc(-c2cn(CC3CN3Cc3ccccc3)nn2)cc1` (configuration not stated), the IC50 in assay [14] and in assay [1] was at most 25000 nM throughout.
In turn, `Clc1ccc2c(-n3cc(OC4CCCCO4)nn3)ccnc2c1` (configuration not stated) registered an IC50 in assay [2] of 1400 nM.
`C[C@@H]1CC[C@H]2[C@@H](C)C(=O)O[C@@H]3O[C@@]4(C)CC[C@@H]1[C@]32OO4` [ARTEMISININ]: in assay [15], the half-inhibitory concentration (IC50) worked out at 6 nM.
In assay [10], `COc1ccc(/C=C(\C#N)c2nc3ccccc3[nH]2)cc1O` came in with a half-inhibitory concentration (IC50) of 690 nM.
`FC(F)c1cn(-c2ccnc3cc(Cl)ccc23)nn1` had an IC50 in [2] of 1400 nM.
`CNCC(Cn1cc(-c2ccccc2)nn1)NCc1ccccc1Cl` (configuration not stated): the IC50 in assay [14] and in assay [1] was at most 25000 nM each time.
In the case of `CC(=O)N1CCN(c2ccc(OCC3COC(Cn4ccnc4)(c4ccc(Cl)cc4Cl)O3)cc2)CC1` (configuration not stated) [KETOCONAZOLE], the half-inhibitory concentration (IC50) in [12] and in [13] was 200 nM in each case.
As for `Cn1nnnc1NCC1CCC2(CC1)OOC1(OO2)C2CC3CC(C2)CC1C3` (configuration not stated), the IC50 in [6], in assay [7], in assay [8] and in assay [9] was 0.3 nM in each case.
In the case of `Cc1ccc(NC(=O)c2ccc3[nH]c(-c4ccc([N+](=O)[O-])o4)nc3c2)c(C)c1`, the inhibition in assay [16] is below 98%. For the same compound, the Time in [17] stood at 20.2 days. Besides, the Activity in assay [18] was found to be 3.05%.
`Clc1ccc(COC(Cn2ccnc2)c2ccc(Cl)cc2Cl)c(Cl)c1` (configuration not stated) [MICONAZOLE]: the IC50 in assay [12] and in assay [13] was 200 nM in each case.
In the case of `c1ccc(-n2nnnc2OCC2CCC3(CC2)OOC2(O3)C3CC4CC(C3)CC2C4)cc1` (configuration not stated), the IC50 in [6], in assay [7], in assay [8] and in assay [9] was 0.3 nM throughout.
Consider `Cc1ccc(-n2cc(C=O)c(-c3ccccc3)n2)cc1`, for which the Activity in [4] is 83%. Moreover, the IC50 in assay [5] worked out at 33 nM.
As to `COc1cc(/C=C(/C#N)c2nc3ccccc3[nH]2)cc(OC)c1`, in assay [10], half-maximal inhibition (IC50) was put at 690 nM.
In the case of `O=C(O)c1cn(-c2ccc(Cl)cc2)nc1-c1ccccc1`, the Activity in [4] turned out to be 83%. Also, in [5], the IC50 stood at 33 nM.
Turning to `CCOC(=O)C1=CNC(C)=C(C(=O)OCC)C1c1ccc(OCC(=O)N/N=C/c2cn(-c3ccccc3)nc2-c2ccccc2)cc1` (configuration not stated), the IC50 in [15] came out at 4.4 nM.
